Series [1] has as its target T1, ATP-dependent translocase ABCB1 (Homo sapiens, UniProt P08183). The series can be described thus: Negative allosteric modulator activity at P-gp in human LCC6MDR cells overexpressing P-gp assessed as reversal of P-gp mediated paclitaxel resistance activity by measuring relative fold at 1 uM incubated for 5 days by MTS assay. The class given is cell-based. The following applies: 120 h, time 5 day. Background: Tetrazolium dyes change colour on reduction, which living cells bring about.

The target of series [2] is T1, ATP-dependent translocase ABCB1. The series can be described thus: Negative allosteric modulator activity at P-gp in human LCC6MDR cells assessed as increase in intracellular doxorubicin accumulation using doxorubicin as substrate incubated for 150 mins by microplate reader assay. The class given is cell-based. The following applies: 2.5 h.
The target is the same in series [3]. The series can be described thus: Binding affinity to human P-glycoprotein expressed in LCC6MDR cells assessed as stabilization of protein by measuring fluorescence at 1 uM incubated for 1 hr by Western blotting analysis. It is filed as cell-based. A general note: A western blot detects proteins with antibodies after separation by electrophoresis.
The target is the same in series [4]. The series can be described thus: Binding affinity to P-glycoprotein in human LCC6MDR cells assessed as stabilization of protein by measuring fluorescence at 1 uM incubated for 1 hr by Western blotting analysis. The class given is cell-based.
Series [5] has the same target. The series can be described thus: Binding affinity to human P-glycoprotein expressed in LCC6MDR cells assessed as stabilization of protein by measuring fluorescence at 0.1 to 1 uM by Western blotting analysis. The following applies: dose 0.1-1 µM. It is filed as cell-based.
For series [6] the target is unchanged. The series can be described thus: Displacement of FM-04 from human P-glycoprotein expressed in LCC6MDR cells at 1 uM by competitive binding assay. The class given is cell-based.
The target of series [7] is T2, ATP-dependent translocase ABCB1 (Mus musculus, UniProt P06795). The series can be described thus: Binding affinity to mouse P-glycoprotein expressed in Pichia pastoris assessed as stabilization of protein by measuring fluorescence at 1 uM by Western blotting analysis.
The target of series [8] is T2, ATP-dependent translocase ABCB1. The series can be described thus: Displacement of FM04 from mouse P-glycoprotein expressed in Pichia pastoris at 1 uM by competitive binding assay.
Series [9] shares this target. The series can be described thus: Binding affinity to biotin-labeled mouse P-glycoprotein expressed in Pichia pastoris assessed as stabilization of protein by measuring fluorescence at 100 uM incubated for 2 hr by Streptavidin-HRP blotting assay.
Series [10] shares this target. The series can be described thus: Binding affinity to mouse P-glycoprotein expressed in Pichia pastoris assessed as stabilization of protein by measuring fluorescence at 100 uM incubated for 2 hr by Streptavidin-HRP blotting assay.
The target is the same in series [11]. The series can be described thus: Binding affinity to mouse P-glycoprotein expressed in Pichia pastoris assessed as stabilization of protein by measuring fluorescence at 100 uM incubated for 2 hr by Streptavidin-pull down blotting assay.
The target is the same in series [12]. The series can be described thus: Binding affinity to mouse P-glycoprotein expressed in Pichia pastoris assessed as stabilization of protein by measuring fluorescence at 1000 uM incubated for 2 hr by Streptavidin-pull down blotting assay.

T2 sequence (P06795 whole entry): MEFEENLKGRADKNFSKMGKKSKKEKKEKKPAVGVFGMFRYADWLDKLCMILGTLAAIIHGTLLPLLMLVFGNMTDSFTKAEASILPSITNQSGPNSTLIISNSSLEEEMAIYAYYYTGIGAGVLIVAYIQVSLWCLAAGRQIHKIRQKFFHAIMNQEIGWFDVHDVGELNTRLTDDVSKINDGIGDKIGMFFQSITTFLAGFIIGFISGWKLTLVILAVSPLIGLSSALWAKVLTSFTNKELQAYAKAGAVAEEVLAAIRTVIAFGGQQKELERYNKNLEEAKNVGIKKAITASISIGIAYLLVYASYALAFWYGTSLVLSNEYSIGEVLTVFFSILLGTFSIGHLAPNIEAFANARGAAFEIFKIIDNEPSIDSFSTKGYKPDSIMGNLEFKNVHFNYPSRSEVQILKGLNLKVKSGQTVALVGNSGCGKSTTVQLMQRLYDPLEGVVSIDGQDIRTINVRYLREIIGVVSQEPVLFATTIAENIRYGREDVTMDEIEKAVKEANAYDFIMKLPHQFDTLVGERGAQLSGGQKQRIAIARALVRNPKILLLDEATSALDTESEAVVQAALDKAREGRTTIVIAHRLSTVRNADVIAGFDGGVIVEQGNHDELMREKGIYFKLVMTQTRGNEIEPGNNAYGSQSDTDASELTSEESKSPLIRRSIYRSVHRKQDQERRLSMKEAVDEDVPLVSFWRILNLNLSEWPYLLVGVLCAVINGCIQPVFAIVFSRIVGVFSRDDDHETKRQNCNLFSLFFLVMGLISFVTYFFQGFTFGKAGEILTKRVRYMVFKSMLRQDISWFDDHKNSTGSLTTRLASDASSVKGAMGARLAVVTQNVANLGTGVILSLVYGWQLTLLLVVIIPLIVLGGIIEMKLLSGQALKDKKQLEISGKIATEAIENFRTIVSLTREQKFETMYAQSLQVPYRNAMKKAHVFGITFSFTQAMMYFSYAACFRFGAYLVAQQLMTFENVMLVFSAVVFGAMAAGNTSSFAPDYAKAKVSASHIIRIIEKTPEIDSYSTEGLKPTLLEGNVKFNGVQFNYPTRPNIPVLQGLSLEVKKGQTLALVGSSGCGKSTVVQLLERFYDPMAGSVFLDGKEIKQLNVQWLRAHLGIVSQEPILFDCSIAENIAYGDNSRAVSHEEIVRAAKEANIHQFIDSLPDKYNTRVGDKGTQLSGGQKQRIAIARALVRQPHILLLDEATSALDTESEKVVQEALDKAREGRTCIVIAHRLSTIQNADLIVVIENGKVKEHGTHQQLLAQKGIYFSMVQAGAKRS
T1 sequence (P08183 whole entry): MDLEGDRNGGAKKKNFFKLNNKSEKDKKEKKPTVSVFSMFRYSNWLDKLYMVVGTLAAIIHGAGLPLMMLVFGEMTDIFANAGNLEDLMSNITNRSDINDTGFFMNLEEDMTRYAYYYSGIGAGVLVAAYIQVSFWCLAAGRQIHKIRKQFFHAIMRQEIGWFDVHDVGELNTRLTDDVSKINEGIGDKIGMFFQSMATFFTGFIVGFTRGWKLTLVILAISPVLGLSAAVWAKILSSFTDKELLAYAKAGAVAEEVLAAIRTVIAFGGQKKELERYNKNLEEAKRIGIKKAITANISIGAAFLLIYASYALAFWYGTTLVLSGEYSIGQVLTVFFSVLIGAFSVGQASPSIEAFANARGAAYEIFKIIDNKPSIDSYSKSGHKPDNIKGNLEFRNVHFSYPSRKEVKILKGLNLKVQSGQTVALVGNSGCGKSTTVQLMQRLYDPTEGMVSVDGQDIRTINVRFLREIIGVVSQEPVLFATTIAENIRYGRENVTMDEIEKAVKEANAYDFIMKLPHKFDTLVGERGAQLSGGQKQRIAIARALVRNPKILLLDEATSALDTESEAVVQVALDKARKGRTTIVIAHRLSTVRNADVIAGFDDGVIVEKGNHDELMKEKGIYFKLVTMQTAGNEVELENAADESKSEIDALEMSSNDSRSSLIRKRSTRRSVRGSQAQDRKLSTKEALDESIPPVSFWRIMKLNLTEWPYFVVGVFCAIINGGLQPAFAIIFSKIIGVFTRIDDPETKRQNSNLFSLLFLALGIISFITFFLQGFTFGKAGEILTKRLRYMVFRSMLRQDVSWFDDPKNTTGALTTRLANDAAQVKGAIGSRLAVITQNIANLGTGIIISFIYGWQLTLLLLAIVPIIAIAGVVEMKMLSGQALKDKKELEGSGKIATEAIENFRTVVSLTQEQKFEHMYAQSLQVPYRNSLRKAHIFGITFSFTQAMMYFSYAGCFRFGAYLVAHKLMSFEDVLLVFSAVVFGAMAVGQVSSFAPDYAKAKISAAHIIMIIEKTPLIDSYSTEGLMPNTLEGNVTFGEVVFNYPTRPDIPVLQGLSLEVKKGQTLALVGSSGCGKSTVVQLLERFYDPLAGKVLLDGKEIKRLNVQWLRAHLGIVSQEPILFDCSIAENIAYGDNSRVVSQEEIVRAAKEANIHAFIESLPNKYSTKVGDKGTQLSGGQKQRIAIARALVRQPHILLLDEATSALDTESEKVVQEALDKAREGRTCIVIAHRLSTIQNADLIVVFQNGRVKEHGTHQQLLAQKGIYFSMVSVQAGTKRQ

Consider `O=c1cc(-c2ccc(OCCOCCOCCOCCOc3ccc(-c4cc(=O)c5c(O)cc(O)cc5o4)cc3)cc2)oc2cc(O)cc(O)c12`, for which, in series [1], the “fold change (FC)” value came to 11.

In the case of `O=c1cc(-c2ccc(OCCOCCN(CCOCCOc3ccc(-c4cc(=O)c5ccccc5o4)cc3)Cc3ccccc3)cc2)oc2ccccc12`, the “fold change (FC)” value in [1] is 68.

In the case of `O=c1cc(-c2ccc(OCCOCCOCCOCCOc3ccc(-c4cc(=O)c5ccccc5o4)cc3)cc2)oc2ccccc12`, the “fold change (FC)” value in series [1] was determined as 28.

For the molecule `O=c1cc(-c2ccc(OCCOCCNCc3ccc(C4(C(F)(F)F)N=N4)cc3)cc2)oc2ccccc12`, the “fold change (FC)” value in [1] worked out at 56.3. In addition, in series [2], the result was Active.

As to `C#CCN(CCOCCOc1ccc(-c2cc(=O)c3ccccc3o2)cc1)Cc1ccc(C2(C(F)(F)F)N=N2)cc1`, in series [1], the “fold change (FC)” value is 2.3. Moreover, the Activity entry in [3] and in [4] was “Not Active” each time.

As for `O=c1cc(-c2ccc(OCCOCCN(Cc3ccc(C4(C(F)(F)F)N=N4)cc3)Cc3ccc(C4(C(F)(F)F)N=N4)cc3)cc2)oc2ccccc12`, the “fold change (FC)” value in series [1] stood at 0.8.

Consider `C#CCOc1cccc2oc(-c3ccc(OCCOCCNCc4ccc(C5(C(F)(F)F)N=N5)cc4)cc3)cc(=O)c12`, for which the “fold change (FC)” value in series [1] is given as 92.6. Further, the Activity entry in series [2] is recorded as “Active”; in series [3] it was “Active”; in [4], “Not Active”; in [5], “Dose-Dependent Effect”; in series [6], “Not Active”; in series [7], “Active”. Also, the Activity result is “Not Active” in series [8]; “Active” in series [9]; “Not Active” in series [10]; “Active” in series [11]; “Active” in series [12].

In the case of `C#CCNc1cc(C)cc2c(=O)cc(-c3ccc(OCCOCCNCc4ccc(C5(C(F)(F)F)N=N5)cc4)cc3)oc12`, the “fold change (FC)” value in series [1] was found to be 0.5. Moreover, the Activity entry in series [3] and in [4] was “Not Active” in each case.

Consider `C#CCNc1cc(C)cc2c(=O)cc(-c3ccc(OCCOCCN(Cc4ccc(C5(C(F)(F)F)N=N5)cc4)Cc4ccc(C5(C(F)(F)F)N=N5)cc4)cc3)oc12`, for which, in [1], the “fold change (FC)” value amounted to 0.4.

In the case of `[N-]=[N+]=NCc1cc(CNCCOCCOc2ccc(-c3cc(=O)c4ccccc4o3)cc2)cc(N=[N+]=[N-])c1`, the “fold change (FC)” value in series [1] amounted to 61.7. For the same molecule, the Activity result in series [2] is reported as “Active”; in series [3], “Active”; in series [4] it was “Not Active”.

Consider `O=c1cc(-c2ccc(O)cc2)oc2cc(O)cc(O)c12` [APIGENIN], for which, in [1], the “fold change (FC)” value came to 1.

These data come from ChEMBL document CHEMBL5338754, “Identification of Binding Sites in the Nucleotide-Binding Domain of P-Glycoprotein for a Potent and Nontoxic Modulator, the Amine-Containing Monomeric Flavonoid FM04” (J Med Chem, 2023).
